target: T1, Transient receptor potential cation channel subfamily V member 1 (Homo sapiens, UniProt Q8NER1); experiment: Antagonist activity at human TRPV1 expressed in CHO cells assessed as inhibition of 45 degC heat-induced activation by FLIPR assay; assay type: cell-based; details: not given
T1 sequence (Q8NER1 whole entry): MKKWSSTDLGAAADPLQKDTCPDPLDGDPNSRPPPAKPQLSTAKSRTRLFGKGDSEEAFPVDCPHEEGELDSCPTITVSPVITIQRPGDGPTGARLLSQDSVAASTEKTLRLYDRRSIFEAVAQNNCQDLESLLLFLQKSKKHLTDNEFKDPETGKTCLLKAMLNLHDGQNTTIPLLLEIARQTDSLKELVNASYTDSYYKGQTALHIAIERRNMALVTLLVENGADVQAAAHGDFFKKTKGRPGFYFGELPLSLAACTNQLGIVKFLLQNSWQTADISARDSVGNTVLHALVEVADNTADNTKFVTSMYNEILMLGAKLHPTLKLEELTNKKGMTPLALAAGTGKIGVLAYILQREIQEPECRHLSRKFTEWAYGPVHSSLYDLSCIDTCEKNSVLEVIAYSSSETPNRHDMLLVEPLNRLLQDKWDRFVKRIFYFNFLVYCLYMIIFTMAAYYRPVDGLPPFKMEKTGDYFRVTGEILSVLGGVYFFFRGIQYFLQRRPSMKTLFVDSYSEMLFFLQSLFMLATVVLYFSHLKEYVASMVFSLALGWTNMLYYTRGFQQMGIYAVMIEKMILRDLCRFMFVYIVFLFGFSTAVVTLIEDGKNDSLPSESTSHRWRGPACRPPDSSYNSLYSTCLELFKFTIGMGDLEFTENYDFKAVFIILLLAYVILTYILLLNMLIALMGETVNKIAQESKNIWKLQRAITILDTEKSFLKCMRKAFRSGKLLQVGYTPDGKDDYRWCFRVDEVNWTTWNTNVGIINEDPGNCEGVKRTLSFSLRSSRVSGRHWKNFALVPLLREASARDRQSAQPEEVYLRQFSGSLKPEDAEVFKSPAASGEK

| SMILES | IC50 [nM] |
| --- | --- |
| Cc1cccc(C(C(=O)NCc2ccc(C(F)(F)F)nc2N2CCC(C)CC2)c2ccc(NS(C)(=O)=O)c(F)c2)c1 (configuration not stated) | 36.2 |

target: T1, Transient receptor potential cation channel subfamily V member 1; experiment: Antagonist activity at human TRPV1 expressed in CHO cells assessed as inhibition of N-arachidonoyl dopamine-induced activation by FLIPR assay; assay type: cell-based; details: not given

| SMILES | Ki [nM] |
| --- | --- |
| Cc1cccc(C(C(=O)NCc2ccc(C(F)(F)F)nc2N2CCC(C)CC2)c2ccc(NS(C)(=O)=O)c(F)c2)c1 (configuration not stated) | 0.25 |

target: T1, Transient receptor potential cation channel subfamily V member 1; experiment: Antagonist activity at human TRPV1 expressed in CHO cells assessed as inhibition of capsaicin-induced activation by FLIPR assay; assay type: cell-based; details: cho

| SMILES | Ki |
| --- | --- |
| CS(=O)(=O)Nc1ccc(C(C(=O)NCc2ccc(C(F)(F)F)nc2SC2CCCCC2)C2CCCCC2)cc1F (configuration not stated) | Active |
| Cc1ccccc1C(C(=O)NCc1ccc(C(F)(F)F)nc1SC1CCCCC1)c1ccc(NS(C)(=O)=O)c(F)c1 (configuration not stated) | Active |
| CS(=O)(=O)Nc1ccc(C(Cc2ccccc2)C(=O)NCc2ccc(C(F)(F)F)nc2SC2CCCCC2)cc1F (configuration not stated) | Active |
| CS(=O)(=O)Nc1ccc(C(Cc2ccc(F)cc2)C(=O)NCc2ccc(C(F)(F)F)nc2SC2CCCCC2)cc1F (configuration not stated) | Active |
| Cc1ccc(CC(C(=O)NCc2ccc(C(F)(F)F)nc2N2CCC(C)CC2)c2ccc(NS(C)(=O)=O)c(F)c2)cc1 (configuration not stated) | Active |
| CCC(C)(C(=O)NCc1ccc(C(F)(F)F)nc1SC1CCCCC1)c1ccc(NS(C)(=O)=O)c(F)c1 (configuration not stated) | Active |
| CC1CCN(c2nc(C(F)(F)F)ccc2CNC(=O)C2(c3ccc(NS(C)(=O)=O)c(F)c3)CCCC2)CC1 | Active |
| CS(=O)(=O)Nc1ccc(C2(C(=O)NCc3ccc(C(F)(F)F)nc3SC3CCCCC3)CCCC2)cc1F | Active |

same assay, conditions: read-out: Ki

| SMILES | Ki [nM] |
| --- | --- |
| CS(=O)(=O)Nc1ccc(C(C(=O)NCc2ccc(C(F)(F)F)nc2SC2CCCCC2)c2cccc(F)c2)cc1F (configuration not stated) | 48.7 |
| CS(=O)(=O)Nc1ccc(C(C(=O)NCc2ccc(C(F)(F)F)nc2SC2CCCCC2)c2ccc(F)cc2)cc1F (configuration not stated) | 37.6 |
| Cc1cccc(C(C(=O)NCc2ccc(C(F)(F)F)nc2SC2CCCCC2)c2ccc(NS(C)(=O)=O)c(F)c2)c1 (configuration not stated) | 56.4 |
| Cc1ccc(C(C(=O)NCc2ccc(C(F)(F)F)nc2SC2CCCCC2)c2ccc(NS(C)(=O)=O)c(F)c2)cc1 (configuration not stated) | 7.5 |
| CC1CCN(c2nc(C(F)(F)F)ccc2CNC(=O)C(Cc2ccccc2)c2ccc(NS(C)(=O)=O)c(F)c2)CC1 (configuration not stated) | 65.9 |
| CC1CCN(c2nc(C(F)(F)F)ccc2CNC(=O)C(Cc2ccc(F)cc2)c2ccc(NS(C)(=O)=O)c(F)c2)CC1 (configuration not stated) | 49.3 |
| Cc1ccc(CC(C(=O)NCc2ccc(C(F)(F)F)nc2SC2CCCCC2)c2ccc(NS(C)(=O)=O)c(F)c2)cc1 (configuration not stated) | 40.3 |

Reference: ChEMBL document CHEMBL3425430, “α-Substituted 2-(3-fluoro-4-methylsulfonamidophenyl)acetamides as potent TRPV1 antagonists” (Bioorg Med Chem Lett, 2015)
